According to patent US20240228446A1, “PREPARATION METHOD FOR BICYCLIC COMPOUND AND APPLICATION AS ANTIFUNGAL AGENT” (priority 2021, published 2024):
≈ marks a conversion by molar mass, not a printed value.

Tests used:
[1] = test system: Aspergillus fumigatus ATCC MYA-4609; assay: Minimal inhibitory concentration (MIC) test on fungal growth (CLSI M38, Aspergillus); type: cell-based; details: lowest concentration inhibiting Aspergillus by 100%, 35° C., 48 hours, RPMI1640; for MIC: Aspergillus fumigatus, read-out: MIC Aspergillus fumigatus ATCC MYA-4609
Method: • RPMI1640 medium: Brand: Gibco, article number: 31800-014 • Sabouraud dextrose agar (SDA): Brand: Hope Bio, article number: HB0253-81 • Voriconazole: Brand: Adamas, article number: 22105A • Amphotericin B: Brand: AbCam, article number: ab141199
MIC test was conducted in accordance with the guidelines and requirements of CLSI M27 (for yeasts) and M38 (for Aspergillus).
Strain preparation: The strains were inoculated 1 day in advance by streaking on SDA plates with glycerol strains stored at −80° C. The strains were cultured at 35° C. and 40 to 60% humidity for 18 to 24 hours. Streak inoculation of Aspergillus fumigatus and Cryptococcus neoformans was required to be done 3 days and 2 days in advance, respectively.
Preparation of culture medium and compounds: The liquid culture medium RPMI was prepared with pure water, and 0.165 mol/L MOPS was added to adjust the pH to 7.0. The mixture was filtered with a 0.22 μm-membrane filter, sterilized, and stored at 4° C. (no more than 3 months). 0.85% physiological saline was sterilized at 121° C. for 30 min and then stored at room temperature (no more than 1 week). The compounds were dissolved in DMSO to 12.8 mg/mL and stored at −20° C.
For Aspergillus, 5 mL of physiological saline was added to cover the mycelium, and the spores were gently scraped off with a spreader. The spore suspension was then transferred to a sterile test tube. An appropriate amount of spore suspension was taken and counted under a microscope using a hemocytometer. Spore concentration was adjusted to approximately 0.4 to 5×10^4 spores/mL using RPMI1640 medium.
The compound was diluted to the highest 800 μg/mL (or 400 μg/mL) with DMSO, and a 10-step 2-fold gradient dilution was performed, resulting in 11 concentrations. 2 μL of the gradient-diluted compound was transferred to the corresponding wells of a 96-well plate, and then 198 μL of the inoculum was transferred to the test plate. The plate was incubated at 35° C. for 24 hours (Aspergillus fumigatus and Cryptococcus neoformans were incubated for 48 and 72 hours, respectively).
After the incubation, the growth of the fungi was visually observed. The lowest concentration of the compound that inhibited the growth of yeast by 50% (inhibited Aspergillus by 100%) was defined as the minimum inhibitory concentration (MIC, μg/mL). A magnifying glass or reading at OD530 nm could be used to assist in determining the MIC. Photos were taken of the test plates for record keeping.

[2] = test system: Candida albicans ATCC MYA-2876; assay: Minimal inhibitory concentration (MIC) test on fungal growth (CLSI M27, yeasts); type: cell-based; details: lowest concentration inhibiting growth of yeast by 50%, 35° C., 24 hours, RPMI1640; for MIC: Candida albicans, read-out: MIC Candida albicans ATCC MYA-2876
Summary of the method: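 Broth microdilution followed CLSI M27 in RPMI1640 buffered with 0.165 M MOPS, pH 7.0, with a final inoculum of 500–2500 CFU/mL. Eleven 2-fold compound concentrations were tested, and plates were incubated 24 h at 35 °C. MIC was the lowest concentration giving 50% growth inhibition, read visually with optional OD530 assistance.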

Row | MIC [1] | MIC [2] | MIC Aspergillus fumigatus ATCC MYA-4609 [1] | MIC Candida albicans ATCC MYA-2876 [2] | SMILES
1 | 0.5 µg/mL (≈ 0.981 µM) | ≤ 0.0039 µg/mL | – | – | O[C@H](COc1ccc(C23CC(CC(O)(Cn4cncn4)c4ccc(F)cc4F)(C2)C3)cc1)C(F)(F)F (stereo partly drawn) [Compound 90]
2 | – | – | 4 µg/mL (≈ 7.31 µM) | ≤0.0039 µg/mL | O[C@@H](COc1ccc(C23CC(C(F)(F)[C@](O)(Cn4cnnn4)c4ccc(F)cc4F)(C2)C3)cn1)C(F)(F)F [Compound 97A]
3 | – | – | 8 µg/mL (≈ 14.6 µM) | 0.0078 µg/mL (≈ 0.0142 µM) | O[C@H](COc1ccc(C23CC(C(F)(F)[C@@](O)(Cn4cnnn4)c4ccc(F)cc4F)(C2)C3)cn1)C(F)(F)F [Compound 97B]
4 | – | – | 1 µg/mL (≈ 1.83 µM) | ≤0.0039 µg/mL | O[C@H](COc1ccc(C23CC(C(F)(F)[C@](O)(Cn4cncn4)c4ccc(F)cc4F)(C2)C3)cn1)C(F)(F)F [Compound 98A]
5 | – | – | 2 µg/mL (≈ 3.66 µM) | ≤0.0039 µg/mL | O[C@H](COc1ccc(C23CC(C(F)(F)[C@@](O)(Cn4cncn4)c4ccc(F)cc4F)(C2)C3)cn1)C(F)(F)F [Compound 98B]
6 | – | – | 2 µg/mL (≈ 3.66 µM) | ≤0.0039 µg/mL | OC(COc1ccc(C23CC(C(F)(F)C(O)(Cn4cncn4)c4ccc(F)cc4F)(C2)C3)cn1)C(F)(F)F (stereo not drawn) [Compound 98]
7 | – | – | 4 µg/mL (≈ 7.66 µM) | ≤0.0039 µg/mL | O[C@@](Cn1cnnn1)(c1ccc(F)cc1F)C(F)(F)C12CC(c3ccc(OCC4(F)COC4)cc3)(C1)C2 [Compound 121A]
8 | 8 µg/mL (≈ 15.3 µM) | 0.0078 µg/mL (≈ 0.0149 µM) | – | – | OC(Cn1cnnn1)(c1ccc(F)cc1F)C(F)(F)C12CC(c3ccc(OCC4(F)COC4)cc3)(C1)C2 (stereo not drawn) [Compound 121]
9 | – | – | 4 µg/mL (≈ 9.02 µM) | 0.0078 µg/mL (≈ 0.0176 µM) | N#Cc1ccc(C23CC(C(F)(F)C(O)(Cn4cncn4)c4ccc(F)cc4F)(C2)C3)cn1 (stereo not drawn) [Compound 128]
10 | 4 µg/mL (≈ 7.54 µM) | 0.0078 µg/mL (≈ 0.0147 µM) | – | – | O=C(COc1ccc(C23CC(C(F)(F)C(O)(Cn4cncn4)c4ccc(F)cc4F)(C2)C3)cc1)NC1CC1 (stereo not drawn) [Compound 129]
11 | 8 µg/mL (≈ 15.2 µM) | 0.0078 µg/mL (≈ 0.0148 µM) | – | – | CS(=O)(=O)COc1ccc(C23CC(C(F)(F)C(O)(Cn4cnnn4)c4ccc(F)cc4F)(C2)C3)cc1 (stereo not drawn) [Compound 131]
12 | 2 µg/mL (≈ 3.54 µM) | ≤ 0.0039 µg/mL | – | – | O[C@H](COc1ccc(C23CC(C(F)(F)[C@](O)(Cn4cnnn4)c4ccc(F)cc4F)(C2)C3)cc1F)C(F)(F)F [Compound 134A]
13 | 4 µg/mL (≈ 7.09 µM) | 0.0078 µg/mL (≈ 0.0138 µM) | – | – | O[C@H](COc1ccc(C23CC(C(F)(F)C(O)(Cn4cnnn4)c4ccc(F)cc4F)(C2)C3)cc1F)C(F)(F)F (stereo partly drawn) [Compound 134]
14 | 8 µg/mL (≈ 14.3 µM) | 0.016 µg/mL (≈ 0.0285 µM) | – | – | CC(Oc1ccc(C23CC(C(F)(F)C(O)(Cn4cnnn4)c4ccc(F)cc4F)(C2)C3)cc1)C(O)C(F)(F)F (stereo not drawn) [Compound 135]
15 | 4 µg/mL (≈ 7.14 µM) | 0.016 µg/mL (≈ 0.0285 µM) | – | – | COC(COc1ccc(C23CC(C(F)(F)C(O)(Cn4cnnn4)c4ccc(F)cc4F)(C2)C3)cc1)C(F)(F)F (stereo not drawn) [Compound 136]
16 | 8 µg/mL (≈ 15.1 µM) | ≤ 0.0039 µg/mL | – | – | OC(COc1ccc(C23CC(C(F)(F)C(O)(Cn4cnnn4)c4ccc(F)cc4F)(C2)C3)cc1)C(F)F (stereo not drawn) [Compound 137]
17 | – | – | 8 µg/mL (≈ 14.3 µM) | 0.0078 µg/mL (≈ 0.0139 µM) | OC(COc1ccc(C23CC(C(F)(F)C(O)(Cn4cnnn4)c4ccc(F)cc4F)(C2)C3)cc1)CC(F)(F)F (stereo not drawn) [Compound 142]
18 | 8 µg/mL (≈ 15.4 µM) | 0.0078 µg/mL (≈ 0.015 µM) | – | – | OC(COc1ccc(C23CC(C(F)(F)C(O)(Cn4cnnn4)c4ccc(F)cc4F)(C2)C3)cc1)C1CC1 (stereo not drawn) [Compound 144]
19 | 2 µg/mL (≈ 3.61 µM) | ≤ 0.0039 µg/mL | – | – | OC1(COc2ccc(C34CC(C(F)(F)[C@](O)(Cn5cnnn5)c5ccc(F)cc5F)(C3)C4)cc2)CC(F)(F)C1 [Compound 149A]
20 | 8 µg/mL (≈ 14.4 µM) | ≤ 0.0039 µg/mL | – | – | OC1(COc2ccc(C34CC(C(F)(F)C(O)(Cn5cnnn5)c5ccc(F)cc5F)(C3)C4)cc2)CC(F)(F)C1 (stereo not drawn) [Compound 149]
21 | 2 µg/mL (≈ 3.85 µM) | ≤ 0.0039 µg/mL | – | – | OC1(COc2ccc(C34CC(C(F)(F)C(O)(Cn5cncn5)c5ccc(F)cc5F)(C3)C4)cc2)COC1 (stereo not drawn) [Compound 151]
